# Data as given in the supplement of paper PMC4862054.
# Columns and labels:
# Settings in all cases: incubation time: 72 h
# MDA-MB-453 [1] = assay: normalised response (% of control), CellTiter-Glo; higher = more viable cells (100 = DMSO, 0 = benzethonium chloride kill control)
# Experimental: (§1)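 DSRT, 72 h incubation, CellTox Green / CellTiter-Glo readout. Signal is normalised to DMSO and benzethonium chloride controls. Value is the normalised response at dose 3.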
# CAL-120 [2] = assay: as above
# Experimental: as §1
# MFM-223 [3] = assay: as above
# Experimental: as §1
# SK-BR-3 = assay: as above
# Experimental: as §1
# CAL-85-1 [4] = assay: as above
# Experimental: as §1
# CAL-51 [5] = assay: as above
# Experimental: as §1
# BT-549 [6] = assay: as above
# Experimental: as §1
# HCC1937 [7] = assay: as above
# Experimental: as §1
# HDQ-P1 [8] = assay: as above
# Experimental: as §1
# MCF-10A [9] = assay: as above
# Experimental: as §1
# DU-4475 [10] = assay: as above
# Experimental: as §1
# HCC1143 [11] = assay: as above
# Experimental: as §1
# CAL-148 [12] = assay: as above
# Experimental: as §1
# MDA-MB-436 [13] = assay: as above
# Experimental: as §1
# HCC1599 [14] = assay: as above
# Experimental: as §1
# Hs578T [15] = assay: as above
# Experimental: as §1
# MDA-MB-468 [16] = assay: as above
# Experimental: as §1
# MDA-MB-231 [17] = assay: as above
# Experimental: as §1
# BT-474 [18] = assay: as above
# Experimental: as §1
# MDA-MB-453 [19] = assay: normalised response (% of control), CellTox Green; higher = less cell death (100 = DMSO, 0 = benzethonium chloride kill control)
# Procedure, shortened: (§2)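 Breast cancer cell lines, seeded at 20 µl suspension per well, were incubated for 72 h in 384-well plates containing compound at 5 concentrations. These concentrations rose in 10-fold steps over a 10,000-fold range set for each compound. CellTox Green fluorescence (485/520 nm) was read, then CellTiter-Glo luminescence after 10 min at room temperature, and each plate was normalised to 0.1 % DMSO (100) and a positive kill control (0). Values are normalised signals, each at one concentration.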
# CAL-120 [20] = assay: as above
# Procedure, shortened: as §2
# MFM-223 [21] = assay: as above
# Procedure, shortened: as §2
# CAL-85-1 [22] = assay: as above
# Procedure, shortened: as §2
# CAL-51 [23] = assay: as above
# Procedure, shortened: as §2
# BT-549 [24] = assay: as above
# Procedure, shortened: as §2
# HCC1937 [25] = assay: as above
# Procedure, shortened: as §2
# HDQ-P1 [26] = assay: as above
# Procedure, shortened: as §2
# MCF-10A [27] = assay: as above
# Procedure, shortened: as §2
# DU-4475 [28] = assay: as above
# Procedure, shortened: as §2
# CAL-148 [29] = assay: as above
# Procedure, shortened: as §2
# MDA-MB-436 [30] = assay: as above
# Procedure, shortened: as §2
# HCC1599 [31] = assay: as above
# Procedure, shortened: as §2
# Hs578T [32] = assay: as above
# Procedure, shortened: as §2
# MDA-MB-468 [33] = assay: as above
# Procedure, shortened: as §2
# MDA-MB-231 [34] = assay: as above
# Procedure, shortened: as §2
# BT-474 [35] = assay: as above
# Procedure, shortened: as §2
# HCC1143 [36] = assay: as above
# Procedure, shortened: as §2
Structure (SMILES),normalised response (MDA-MB-453 [1]) [%],normalised response (CAL-120 [2]) [%],normalised response (MFM-223 [3]) [%],normalised response (SK-BR-3) [%],normalised response (CAL-85-1 [4]) [%],normalised response (CAL-51 [5]) [%],normalised response (BT-549 [6]) [%],normalised response (HCC1937 [7]) [%],normalised response (HDQ-P1 [8]) [%],normalised response (MCF-10A [9]) [%],normalised response (DU-4475 [10]) [%],normalised response (HCC1143 [11]) [%],normalised response (CAL-148 [12]) [%],normalised response (MDA-MB-436 [13]) [%],normalised response (HCC1599 [14]) [%],normalised response (Hs578T [15]) [%],normalised response (MDA-MB-468 [16]) [%],normalised response (MDA-MB-231 [17]) [%],normalised response (BT-474 [18]) [%],normalised response (MDA-MB-453 [19]) [%],normalised response (CAL-120 [20]) [%],normalised response (MFM-223 [21]) [%],normalised response (CAL-85-1 [22]) [%],normalised response (CAL-51 [23]) [%],normalised response (BT-549 [24]) [%],normalised response (HCC1937 [25]) [%],normalised response (HDQ-P1 [26]) [%],normalised response (MCF-10A [27]) [%],normalised response (DU-4475 [28]) [%],normalised response (CAL-148 [29]) [%],normalised response (MDA-MB-436 [30]) [%],normalised response (HCC1599 [31]) [%],normalised response (Hs578T [32]) [%],normalised response (MDA-MB-468 [33]) [%],normalised response (MDA-MB-231 [34]) [%],normalised response (BT-474 [35]) [%],normalised response (HCC1143 [36]) [%]
CN(C)C/C=C/C(=O)Nc1cc2c(Nc3ccc(F)c(Cl)c3)ncnc2cc1O[C@H]1CCOC1 [Afatinib] (10 nM),88.6,94,104,64.6,97,87.7,112,97.6,81.2,59.3,106,106,97.9,96,118,101,98.1,99.3,98.9,82.9,95.5,69,94.8,109,67.8,113,101,12.3,97.6,97.5,96.1,109,97.6,70.8,96.5,95.2,–
CN1CC[C@H](c2c(O)cc(O)c3c(=O)cc(-c4ccccc4Cl)oc23)[C@H](O)C1 [Alvocidib] (100 nM),122,86.2,96.9,87.8,104,81.3,95.5,99.2,86.5,100,94.1,102,100,75.9,108,103,91.9,90.8,85.8,106,97.2,106,91.1,102,101,113,92.7,91.8,96.8,103,69.6,108,–,111,69,98.4,114
Nc1nc(Cl)nc2c1ncn2[C@H]1C[C@H](O)[C@@H](CO)O1 [Cladribine] (10 nM),105,102,104,108,101,84.4,105,92.6,95.8,99.5,102,101,99.5,102,106,101,102,100,99.6,58.9,102,104,107,106,97.8,88.3,62.4,102,102,80.9,–,95,–,–,109,100,53.3
COc1cccc2c1C(=O)c1c(O)c3c(c(O)c1C2=O)C[C@@](O)(C(=O)CO)C[C@@H]3O[C@H]1C[C@H](N)[C@H](O)[C@H](C)O1 [Doxorubicin] (10 nM),106,98.1,108,107,103,91.8,103,101,102,98.4,104,109,111,92.5,98.8,106,106,104,103,105,96.7,107,100,107,82.1,91.2,110,90,101,107,94.8,118,111,91.5,–,98,112
CC(=O)O[C@]1(C(C)=O)CC[C@H]2[C@@H]3C=C(C)C4=CC(=O)CC[C@]4(C)[C@H]3CC[C@@]21C [Megestrol acetate] (100 nM),86.9,96.5,99.1,94.3,104,109,109,104,95.6,104,99.4,95.7,97.4,101,102,106,90.4,111,109,104,103,99.2,103,105,95.4,68.3,81.5,64.5,99.9,66.4,107,83.5,–,149,116,101,74
COc1cccc2cc(-c3nc([C@H]4CC[C@H](C(=O)O)CC4)n4ncnc(N)c34)[nH]c12 [OSI-027] (100 nM),74.2,92.9,91.3,77.3,96.6,103,98.3,98.2,97,86.7,100,101,100,92,114,95.3,92.1,95.3,94.8,101,97.6,105,95.9,105,93.2,90.9,114,98.3,98.5,102,–,102,108,77.1,76.7,99.4,–
OC[C@H]1O[C@@H](n2cnc3c2N=CNC[C@H]3O)C[C@@H]1O [Pentostatin] (100 nM),101,103,100,100,100,86.6,96.1,99.4,99,102,106,104,97.8,96.6,107,104,96.9,106,93.3,103,103,99.5,106,102,99.5,96.4,77.7,94.7,101,55.8,90.5,100,–,104,123,101,88.7
N#CC[C@H](C1CCCC1)n1cc(-c2ncnc3[nH]ccc23)cn1 [Ruxolitinib] (100 nM),85.7,96.3,90.5,88.4,95.1,113,103,102,100,84.2,95.8,98.2,87.1,93.8,94,94.4,96.6,97.9,96.6,99,103,98.4,97.7,99.5,108,91.7,94.4,86.5,96.2,78.4,83.7,95,60.9,52.5,–,97.1,96.9
